In ChEMBL document CHEMBL1201862, “PubChem BioAssay data set” (2004):
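Values below derive from 48-hour exposures of cells grown in 96-well plates, with endpoints linearly interpolated between the two concentrations bracketing the appropriate inhibition level. At the GI50, growth is halved.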 Calls of active or inactive are those of the source. No stated cut-off is given here; in the data, active = GI50 up to about 1.1 µM and inactive = higher.

Experiments:
Test in all cases: NCI tumour cell line growth inhibition, 48 h
HOP-18 = test system: HOP-18
COLO 205 = test system: COLO 205
UACC-62 = test system: UACC-62
NCI-H522 = test system: NCI-H522
HCT-15 = test system: HCT-15
XF498 = test system: XF498
K562 = test system: K562
NCI-H23 = test system: NCI-H23
TK-10 = test system: TK-10
SF-295 = test system: SF-295
KM12 = test system: KM12
HCC 2998 = test system: HCC 2998
HCT-116 = test system: HCT-116
HOP-62 = test system: HOP-62
HOP-92 = test system: HOP-92
SNB-19 = test system: SNB-19
SK-MEL-28 = test system: SK-MEL-28
HT-29 = test system: HT-29
KM-20L2 = test system: KM-20L2
SNB-78 = test system: SNB-78
DMS-273 = test system: DMS-273
OVCAR-8 = test system: OVCAR-8
UO-31 = test system: UO-31
M19-MEL = test system: M19-MEL
Malme-3M = test system: Malme-3M
OVCAR-4 = test system: OVCAR-4
SW-620 = test system: SW-620
SK-MEL-2 = test system: SK-MEL-2
SNB-75 = test system: SNB-75
786-0 = test system: 786-0
LXFL 529 = test system: LXFL 529
NCI-H460 = test system: NCI-H460
CAKI-1 = test system: CAKI-1
CCRF-CEM = test system: CCRF-CEM
M14 = test system: M14
SK-OV-3 = test system: SK-OV-3
SF-268 = test system: SF-268
OVCAR-5 = test system: OVCAR-5
IGROV-1 = test system: IGROV-1
A498 = test system: A498
U-251 = test system: U-251
SK-MEL-5 = test system: SK-MEL-5
NCI-H226 = test system: NCI-H226
A549 = test system: A549
HL-60 = test system: HL-60
SF-539 = test system: SF-539
DMS-114 = test system: DMS-114
DLD-1 = test system: DLD-1
EKVX = test system: EKVX
ACHN = test system: ACHN
UACC-257 = test system: UACC-257
OVCAR-3 = test system: OVCAR-3
SN12C = test system: SN12C
RXF 393 = test system: RXF 393
MOLT-4 = test system: MOLT-4
LOX IMVI = test system: LOX IMVI
RPMI-8226 = test system: RPMI-8226
SR = test system: SR
MCF7 = test system: MCF7
NCI/ADR-RES = test system: NCI/ADR-RES

Measured: GI50

O=c1[nH]c(C2CCCCC2)nc2c(Cl)cccc12
> 100 µM: HCT-15
inactive: HOP-18 > 100 µM | COLO 205 > 100 µM | UACC-62 > 100 µM | NCI-H522 > 100 µM | XF498 > 100 µM | K562 > 100 µM | NCI-H23 > 100 µM | TK-10 > 100 µM | SF-295 > 100 µM | KM12 > 100 µM | HCC 2998 > 100 µM | HCT-116 > 100 µM | HOP-62 > 100 µM | HOP-92 > 100 µM | SNB-19 > 100 µM | SK-MEL-28 > 100 µM | HT-29 > 100 µM | KM-20L2 > 100 µM | SNB-78 > 100 µM | DMS-273 > 100 µM | OVCAR-8 > 100 µM | UO-31 > 100 µM | M19-MEL > 100 µM | Malme-3M > 100 µM | OVCAR-4 > 100 µM | SW-620 > 100 µM | SK-MEL-2 > 100 µM | SNB-75 > 100 µM | 786-0 > 100 µM | LXFL 529 > 100 µM | NCI-H460 > 100 µM | CAKI-1 > 100 µM | CCRF-CEM > 100 µM | M14 > 100 µM | SK-OV-3 > 100 µM | SF-268 > 100 µM | OVCAR-5 > 100 µM | IGROV-1 > 100 µM | A498 > 100 µM | U-251 > 100 µM | SK-MEL-5 > 100 µM | NCI-H226 > 100 µM | A549 > 100 µM | HL-60 > 100 µM | SF-539 > 100 µM | DMS-114 > 100 µM | DLD-1 > 100 µM | EKVX 26.1 µM | ACHN > 100 µM | UACC-257 > 100 µM | OVCAR-3 > 100 µM | SN12C > 100 µM | RXF 393 > 100 µM

Cc1ccc(S(=O)OCC23CC4CC(CC(C4)C2)C3)cc1 (configuration not stated)
inactive: HOP-18 > 100 µM | MOLT-4 > 100 µM | COLO 205 > 100 µM | UACC-62 > 100 µM | NCI-H522 > 100 µM | XF498 > 100 µM | LOX IMVI > 100 µM | K562 > 100 µM | NCI-H23 > 100 µM | TK-10 > 100 µM | SF-295 > 100 µM | KM12 > 100 µM | HCC 2998 > 100 µM | HCT-116 > 100 µM | HOP-62 > 100 µM | HOP-92 > 100 µM | SNB-19 > 100 µM | SK-MEL-28 > 100 µM | HT-29 > 100 µM | RPMI-8226 > 100 µM | KM-20L2 > 100 µM | SNB-78 > 100 µM | DMS-273 > 100 µM | OVCAR-8 > 100 µM | UO-31 72.8 µM | M19-MEL > 100 µM | Malme-3M > 100 µM | OVCAR-4 > 100 µM | SW-620 > 100 µM | SNB-75 > 100 µM | 786-0 > 100 µM | LXFL 529 > 100 µM | NCI-H460 > 100 µM | CAKI-1 > 100 µM | M14 > 100 µM | SK-OV-3 > 100 µM | SF-268 > 100 µM | OVCAR-5 > 100 µM | IGROV-1 > 100 µM | A498 > 100 µM | U-251 > 100 µM | SK-MEL-5 > 100 µM | NCI-H226 > 100 µM | A549 > 100 µM | HL-60 > 100 µM | SF-539 > 100 µM | DLD-1 > 100 µM | SR > 100 µM | EKVX > 100 µM | ACHN > 100 µM | UACC-257 > 100 µM | OVCAR-3 > 100 µM | SN12C > 100 µM | RXF 393 > 100 µM
> 100 µM: HCT-15

O=S(=O)(O)c1ccc(/N=N\c2ccc(/N=N/c3ccc(/C=C/c4ccc(/N=[N+](\[O-])c5ccc(/C=C/c6ccc(/N=N/c7ccc(/N=N/c8ccc(S(=O)(=O)O)cc8)c8ccccc78)cc6S(=O)(=O)O)c(S(=O)(=O)O)c5)cc4S(=O)(=O)O)c(S(=O)(=O)O)c3)c3ccccc23)cc1
> 100 µM: HCT-15
inactive: HOP-18 30.5 µM | MOLT-4 > 100 µM | COLO 205 > 100 µM | UACC-62 > 100 µM | MCF7 > 100 µM | NCI-H522 54.5 µM | XF498 > 66.8 µM | LOX IMVI > 100 µM | K562 > 100 µM | NCI-H23 > 100 µM | SF-295 > 74.6 µM | KM12 > 100 µM | HCC 2998 > 100 µM | HCT-116 > 100 µM | HOP-62 > 100 µM | HOP-92 > 81.1 µM | SNB-19 > 10 µM | SK-MEL-28 > 100 µM | NCI/ADR-RES > 100 µM | HT-29 > 100 µM | RPMI-8226 > 100 µM | KM-20L2 > 100 µM | SNB-78 > 100 µM | DMS-273 > 100 µM | OVCAR-8 > 100 µM | UO-31 57.4 µM | M19-MEL > 100 µM | Malme-3M > 100 µM | OVCAR-4 > 100 µM | SW-620 > 100 µM | SK-MEL-2 > 100 µM | SNB-75 50.7 µM | NCI-H460 > 100 µM | CCRF-CEM > 100 µM | SK-OV-3 > 100 µM | SF-268 > 100 µM | OVCAR-5 > 100 µM | IGROV-1 32.3 µM | A498 > 100 µM | U-251 > 91.4 µM | SK-MEL-5 > 100 µM | NCI-H226 > 83.4 µM | A549 > 89.1 µM | HL-60 > 100 µM | SF-539 > 84.7 µM | DMS-114 > 100 µM | DLD-1 > 100 µM | EKVX > 100 µM | UACC-257 > 100 µM | OVCAR-3 99.1 µM | SN12C > 100 µM | RXF 393 > 100 µM
